Results reported in ChEMBL document CHEMBL1125662, “Inhibition of human placental aromatase by novel homologated 19-oxiranyl and 19-thiiranyl steroids” (J Med Chem, 1991).

Biological target: T1, Aromatase (Homo sapiens, UniProt P11511)
T1 sequence (P11511 whole entry): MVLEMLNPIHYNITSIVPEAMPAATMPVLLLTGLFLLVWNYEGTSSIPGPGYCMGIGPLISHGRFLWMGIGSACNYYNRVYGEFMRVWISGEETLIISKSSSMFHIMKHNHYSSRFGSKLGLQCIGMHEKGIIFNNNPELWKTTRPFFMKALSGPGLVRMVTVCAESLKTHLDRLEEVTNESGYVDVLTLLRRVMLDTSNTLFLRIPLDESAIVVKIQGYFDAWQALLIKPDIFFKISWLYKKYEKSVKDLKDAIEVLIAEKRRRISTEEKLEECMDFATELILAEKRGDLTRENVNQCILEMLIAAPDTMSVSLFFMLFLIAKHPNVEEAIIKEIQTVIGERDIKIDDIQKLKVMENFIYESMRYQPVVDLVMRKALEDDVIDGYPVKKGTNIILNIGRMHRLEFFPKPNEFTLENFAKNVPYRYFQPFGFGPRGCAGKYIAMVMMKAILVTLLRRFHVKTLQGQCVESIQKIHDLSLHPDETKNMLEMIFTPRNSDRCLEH
Description: Inhibition of human placental Cytochrome P450 19A1

Row | SMILES | Ki [nM]
1 | C[C@]12CC[C@H]3[C@@H](CCC4=CC(=O)CC[C@@]43C[C@@H]3CO3)[C@@H]1CCC2=O | 753
2 | C[C@]12CC[C@H]3[C@@H](CCC4=CC(=O)CC[C@@]43C[C@H]3CO3)[C@@H]1CCC2=O | 86
3 | C[C@]12CC[C@H]3[C@@H](CCC4=CC(=O)CC[C@@]43C[C@H]3CS3)[C@@H]1CCC2=O | 22
4 | C[C@]12CC[C@H]3[C@@H](CCC4=CC(=O)CC[C@@]43C[C@@H]3CS3)[C@@H]1CCC2=O | 206
